The values below are quoted from earlier work in US7148022B2, “Assay for anti-viral agent” (The University Court of the University of St. Andrews, priority 2000, dated 2006).

The data set deals with picornavirus. Conditions: background statement, refs 9 and 10.

Structures are written as SMILES.

As to `C[C@H]1CCC/C=C/[C@@H]2C[C@H](O)C[C@H]2[C@H](O)/C=C/C(=O)O1` [Brefeldin-A], the “inhibition of picornavirus replication” value is listed as “one of the most potent known inhibitors”.
